Experimental data from patent publication US20040097574A1, “Glucocorticoid mimetics, methods of making them, pharmaceutical compositions, and uses thereof” (Boehringer Ingelheim Pharmaceuticals, Inc., priority 2002, published 2004).

Tests used:
[1] = system: glucocorticoid receptor function; assay: Glucocorticoid receptor function, one or more of the above assays (agonist/antagonist/modulator activity); type: cell-based; conditions: in one or more of the above assays
Method: B. Glucocorticoid Receptor Cell Assays
1. Induction of Aromatase in Fibroblasts (Cell Assay for Transactivation)
Dexamethasone, a synthetic ligand to the glucocorticoid receptor (GR), induces expression of aromatase in human foreskin fibroblast cells. The activity of aromatase is measured by the conversion of testosterone to estradiol in culture media.
On the day of the experiment, the media in the wells is replaced with fresh media. Cells are treated with test compounds to final concentrations of 10^−5 M to 10^−8 M, and testosterone to a final concentration of 300 ng/mL. Each well has a total volume of 100 μL. Samples are made in duplicates. Control wells include: (a) wells that receive testosterone only, and (b) wells that receive testosterone plus 2 μM of dexamethasone to provide maximum induction of aromatase. Plates are incubated at 37° C. overnight (15 to 18 hours), and supernatants are harvested at the end of incubation. […] The amount of estradiol is inversely proportional to the ELISA signals in each well. The extent of aromatase induction by test compounds is expressed as a relative percentage to dexamethasone. EC50 values of test compounds are derived by non-linear curve fitting.
2. Inhibition of IL-6 Production in Fibroblasts (Cell Assay for Transrepression)
Human foreskin fibroblast cells produce IL-6 in response to stimulation by pro-inflammatory cytokine IL-1.
On the next day, media in the wells is replaced with fresh media. Cells are treated with IL-1 (rhIL-1α, R&D Systems Cat. No. 200-LA) to a final concentration of 1 ng/mL, and with test compounds to final concentrations of 10^−5 M to 10^−8 M, in a total volume of 200 μL per well. Samples are done in duplicates. […] Positive control wells receive IL-1 only and represent maximum (or 100%) amount of IL-6 production. Plates are incubated at 37° C. overnight (15 to 18 hours), and supernatants are harvested at the end of incubation. IL-6 levels in the supernatants are determined by the ELISA kits for IL-6 (MedSystems Diagnostics GmbH, Vienna, Austria, Cat. No. BMS213TEN) according to manufacture's instructions. The extent of inhibition of IL-6 by test compounds is expressed in percentage relative to positive controls. IC50 values of test compounds are derived by non-linear curve fitting.
Evaluation of agonist or antagonist activity of compounds binding to the glucocorticoid receptor may be determined by any of the assays.
3. Modulation of Tyrosine Aminotransferase (TAT) Induction in Rat Hepatoma Cells
Testing of compounds for agonist or antagonist activity in induction of tyrosine aminotransferase (TAT) in rat hepatoma cells.
H4-II-E-C3 cells were incubated overnight in 96 well plates (20,000 cells/100 μL/well) in MEM medium containing 10% heat inactivated FBS and 1% nonessential amino acids. On the next day, cells were stimulated with the indicated concentrations of dexamethasone or test compound (dissolved in DMSO, final DMSO concentration 0.2%) for 18 hours. Control cells were treated with 0.2% DMSO. After 18 hours, the cells were lysed in a buffer containing 0.1% Triton X-100 and the TAT activity was measured in a photometric assay using tyrosine and alpha-ketoglutarate as substrates.
For measuring antagonist activity, the hepatoma cells were pre-stimulated by addition of dexamethasone (concentration ranges from 3×10^−9 M to 3×10^−8 M) shortly before the test compound was applied to the cells.
4. Modulation of MMTV-Luc Induction in HeLa Cells
Testing of compounds for agonist or antagonist activity in stimulation of MMTV-(mouse mammary tumor virus) promoter in HeLa cells.
Cells were cultured overnight in DMEM medium without phenol red, supplemented with 3% CCS (charcoal treated calf serum) and then transferred to 96 well plates (15,000 cells/100 μL/well).

[2] = biological target: T1, human glucocorticoid receptor (GR) complex (Homo sapiens, UniProt P04150); assay: Glucocorticoid receptor competitive binding assay (fluorescence polarization); conditions: competition with TAMRA-labeled dexamethasone; read-out: potent activity in the GR binding assay (IC50)
T1 construct: made in house; host or cells: insect expression system (baculovirus lysate)
T1 sequence (P04150 1-777): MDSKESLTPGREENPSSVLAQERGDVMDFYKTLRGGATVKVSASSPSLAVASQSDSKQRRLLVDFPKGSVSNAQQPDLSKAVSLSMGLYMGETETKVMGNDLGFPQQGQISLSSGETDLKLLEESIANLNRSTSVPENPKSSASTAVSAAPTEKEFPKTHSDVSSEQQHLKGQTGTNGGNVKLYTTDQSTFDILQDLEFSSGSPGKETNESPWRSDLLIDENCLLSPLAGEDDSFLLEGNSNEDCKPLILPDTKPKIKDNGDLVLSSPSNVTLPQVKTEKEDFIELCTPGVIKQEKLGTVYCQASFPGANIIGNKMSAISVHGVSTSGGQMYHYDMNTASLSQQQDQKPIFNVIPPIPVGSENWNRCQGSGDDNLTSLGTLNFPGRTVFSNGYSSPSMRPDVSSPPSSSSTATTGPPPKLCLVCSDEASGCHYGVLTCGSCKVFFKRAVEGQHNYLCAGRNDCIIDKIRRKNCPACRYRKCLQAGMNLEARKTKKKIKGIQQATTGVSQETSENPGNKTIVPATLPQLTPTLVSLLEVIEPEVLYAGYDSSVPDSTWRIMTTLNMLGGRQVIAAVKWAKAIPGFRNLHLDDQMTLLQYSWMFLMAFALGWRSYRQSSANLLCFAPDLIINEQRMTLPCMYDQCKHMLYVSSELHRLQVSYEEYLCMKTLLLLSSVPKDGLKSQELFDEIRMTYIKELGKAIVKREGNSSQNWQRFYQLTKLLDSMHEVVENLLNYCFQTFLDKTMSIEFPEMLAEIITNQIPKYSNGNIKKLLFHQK
Method: Compounds of the invention were evaluated for binding to the steroid receptor by a fluorescence polarization competitive binding assay. Detailed descriptions for preparation of recombinant glucocorticoid receptor (GR) complex used in the assay is described in U.S. Patent Application Publication No. US 2003/0017503, filed May 20, 2002, and the corresponding U.S. provisional application No. 60/291,877, filed May 18, 2001, each of which is incorporated herein by reference in its entirety. Preparation of the tetramethyl rhodamine (TAMRA)-labeled dexamethasone probe was accomplished using a standard literature procedure (M. Pons et al., J. Steroid Biochem., 1985, 22, pp. 267-273).
A. Glucocorticoid Receptor Competitive Binding Assay
Step 1. Characterization of the Fluorescent Probe
The wavelengths for maximum excitation and emission of the fluorescent probe should first be measured. An example of such a probe is rhodamine (TAMRA)-labeled dexamethasone.
The affinity of the probe for the steroid receptor was then determined in a titration experiment. The fluorescence polarization value of the probe in assay buffer was measured on an SLM-8100 fluorometer using the excitation and emission maximum values described above. Aliquots of expression vector lysate were added and fluorescence polarization was measured after each addition until no further change in polarization value was observed. Non-linear least squares regression analysis was used to calculate the dissociation constant of the probe from the polarization values obtained for lysate binding to the probe.
Step 2. Screening for Inhibitors of Probe Binding
This assay uses fluorescence polarization (FP) to quantitate the ability of test compounds to compete with tetramethyl rhodamine (TAMRA)-labeled dexamethasone for binding to a human glucocorticoid receptor (GR) complex prepared from an insect expression system. The assay buffer was: 10 mM TES, 50 mM KCl, 20 mM Na2MoO4.2H2O, 1.5 mM EDTA, 0.04% w/v CHAPS, 10% v/v glycerol, 1 mM dithiothreitol, pH 7.4. Test compounds were dissolved to 1 mM in neat DMSO and then further diluted to 10x assay concentration in assay buffer supplemented with 10% v/v DMSO. Test compounds were serially diluted at 10x assay concentrations in 10% DMSO-containing buffer in 96-well polypropylene plates. Binding reaction mixtures were prepared in 96-well black Dynex microtiter plates by sequential addition of the following assay components to each well: 15 μL of 10x test compound solution, 85 μL of GR-containing baculovirus lysate diluted 1:170 in assay buffer, and 50 μL of 15 nM TAMRA-labeled dexamethasone. Positive controls were reaction mixtures containing no test compound; negative controls (blanks) were reaction mixtures containing 0.7 μM to 2 μM dexamethasone. The binding reactions were incubated for 1 hour at room temperature and then read for fluorescence polarization in the LJL Analyst set to 550 nm excitation and 580 nm emission, with the Rhodamine 561 dichroic mirror installed. IC50 values were determined by iterative non-linear curve fitting of the FP signal data to a 4-parameter logistic equation.

| activity as antagonists of the glucocorticoid receptor function [1] | IC50 [2] [nM] | activity as an agonist of the glucocorticoid receptor function [1] | SMILES |
| --- | --- | --- | --- |
|  | ≤ 100 |  | CCC(Cc1c[nH]c2ccccc12)NS(=O)(=O)c1c(Cl)cc(Cl)cc1Cl (centres unmarked) [2,4,6-Trichloro-N-[1-(1H-indol-3-ylmethyl)propyl]benzenesulfonamide] |
| activity as antagonists |  |  | Cc1cccc(Cl)c1S(=O)(=O)NC(C)Cc1c[nH]c2ccccc12 (centres unmarked) [2-Chloro-N-[2-(1H-indol-3-yl)-1-methylethyl]-6-methylbenzenesulfonamide] |
| activity as antagonists | ≤ 100 |  | CC(Cc1c[nH]c2ccccc12)NS(=O)(=O)c1c(C(C)C)cc(C(C)C)cc1C(C)C (centres unmarked) [N-[2-(1H-Indol-3-yl)-1-methylethyl]-2,4,6-triisopropylbenzenesulfonamide] |
|  | ≤ 100 | activity as an agonist | Cc1cc(C)c(S(=O)(=O)NC(C)Cc2c[nH]c3ccccc23)c(C)c1 (centres unmarked) [N-[2-(1H-Indol-3-yl)-1-methylethyl]-2,4,6-trimethylbenzenesulfonamide] |
|  | ≤ 100 |  | Cc1cc(C)c(S(=O)(=O)NC(C)Cc2c[nH]c3ccc(F)cc23)c(C)c1 (centres unmarked) [N-[2-(5-Fluoro-1H-indol-3-yl)-1-methylethyl]-2,4,6-trimethylbenzenesulfonamide] |

The remaining lines, values behind:

| SMILES | activity as antagonists of the glucocorticoid receptor function [1] | IC50 [2] [nM] | activity as an agonist of the glucocorticoid receptor function [1] |
| --- | --- | --- | --- |
| CC(Cc1c[nH]c2ccccc12)NS(=O)(=O)c1c(Cl)cc(Cl)cc1Cl (centres unmarked) [2,4,6-Trichloro-N-[2-(1H-indol-3-yl)-1-methylethyl]benzenesulfonamide] | activity as antagonists | ≤ 100 |  |
| CCC(Cc1c[nH]c2ccccc12)NS(=O)(=O)c1c(C)cc(C)cc1C (centres unmarked) [N-[1-(1H-Indol-3-ylmethyl)propyl]-2,4,6-trimethylbenzenesulfonamide] |  | ≤ 100 |  |
| CC(Cc1c[nH]c2ccccc12)NS(=O)(=O)c1c(Cl)cccc1Cl (centres unmarked) [2,6-Dichloro-N-[2-(1H-indol-3-yl)-1-methylethyl]benzenesulfonamide] | activity as antagonists |  |  |
| Cc1cc(C)c(S(=O)(=O)NC(C)Cc2c[nH]c3cc(F)ccc23)c(C)c1 (centres unmarked) [N-[2-(6-Fluoro-1H-indol-3-yl)-1-methylethyl]-2,4,6-trimethylbenzenesulfonamide] |  | ≤ 100 |  |
| CC(Cc1c[nH]c2ccccc12)NS(=O)(=O)c1c(Cl)sc(Cl)c1Br (centres unmarked) [4-Bromo-2,5-dichlorothiophene-3-sulfonic acid [2-(1H-indol-3-yl)-1-methylethyl]amide] | activity as antagonists | ≤ 100 |  |
